Assay [1] has as its target T1, Mannose-6-phosphate isomerase (Homo sapiens, UniProt P34949).
T1 sequence (P34949 whole entry): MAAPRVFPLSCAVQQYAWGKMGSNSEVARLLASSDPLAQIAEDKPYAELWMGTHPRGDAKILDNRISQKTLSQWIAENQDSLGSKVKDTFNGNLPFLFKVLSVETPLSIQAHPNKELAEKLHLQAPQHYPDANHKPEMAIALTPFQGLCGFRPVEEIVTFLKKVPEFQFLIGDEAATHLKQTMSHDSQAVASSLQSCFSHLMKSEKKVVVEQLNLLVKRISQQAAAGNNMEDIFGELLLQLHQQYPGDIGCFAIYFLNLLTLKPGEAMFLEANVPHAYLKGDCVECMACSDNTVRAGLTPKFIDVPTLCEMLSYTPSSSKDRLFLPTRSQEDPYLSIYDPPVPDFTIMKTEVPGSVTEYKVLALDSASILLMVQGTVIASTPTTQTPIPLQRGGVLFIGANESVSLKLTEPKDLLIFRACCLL
Nature of the assay: PMI enzyme inhibitors, confirmation, biochemical, fluorescence intensity (AID 1535).

The target in assay [2] is T2, Phosphomannomutase 2 (Homo sapiens, UniProt O15305).
T2 sequence (O15305 whole entry): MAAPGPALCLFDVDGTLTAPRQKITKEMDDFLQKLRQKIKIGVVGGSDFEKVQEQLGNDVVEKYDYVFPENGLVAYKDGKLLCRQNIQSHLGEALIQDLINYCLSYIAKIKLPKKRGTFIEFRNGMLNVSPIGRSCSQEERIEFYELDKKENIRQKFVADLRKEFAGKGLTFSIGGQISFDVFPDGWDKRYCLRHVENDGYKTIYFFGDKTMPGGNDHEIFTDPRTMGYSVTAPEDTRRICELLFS
Kind of assay: Counter screen SAR assay for PMM2 inhibitors via a fluorescence intensity assay. [Related pubchem assays (depositor defined):AID1545, AID1574].

Assay [3] has as its target T3, Carboxy-terminal domain RNA polymerase II polypeptide A small phosphatase 1 (Homo sapiens, UniProt Q9GZU7).
T3 sequence (Q9GZU7 whole entry): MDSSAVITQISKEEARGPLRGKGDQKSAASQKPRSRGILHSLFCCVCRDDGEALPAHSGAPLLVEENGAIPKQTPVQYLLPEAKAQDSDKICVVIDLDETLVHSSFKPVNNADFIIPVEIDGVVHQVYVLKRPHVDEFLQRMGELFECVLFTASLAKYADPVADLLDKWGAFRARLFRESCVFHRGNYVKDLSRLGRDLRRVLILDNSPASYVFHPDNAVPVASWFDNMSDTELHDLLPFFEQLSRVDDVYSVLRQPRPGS
Nature of the assay: inhibitors of CTDSP1, concentration-response testing, biochemical assay, absorbance-based, actives from ultra-high-throughput screening (AID 540297). In kind it is functional.

Assay [4] concerns the target Eukaryotic translation initiation factor 4E (Mus musculus, UniProt P63073). Nature of the assay: eIF4E–eIF4G protein interaction inhibitors, dose response, biochemical, TR-FRET (AID 855).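 Note: potency for disrupting eIF4E binding to eIF4GI seen as loss of FRET.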 In kind it is functional. Background: TR-FRET usually uses a lanthanide donor and a delayed reading to cut background.
The target of assay [5] is Phosphoethanolamine/phosphocholine phosphatase (Homo sapiens, UniProt Q8TCT1). Nature of the assay: SAR assay for compounds that inhibit PHOSPHO1. [Related pubchem assays (depositor defined):AID1545, AID1565, AID1574].
In assay [6] the target is Large T antigen (Simian virus 40, UniProt P03070). In kind it is functional, Betapolyomavirus macacae.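 Note: Confirmatory-stage PubChem screen for compounds that inhibit SV40 T antigen.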
For assay [7], the target named is Glucose-6-phosphate 1-dehydrogenase (Homo sapiens, UniProt P11413). Nature of the assay: human G6PD enzyme inhibitors, dose response, selectivity assay for P. falciparum G6PD inhibitor project, biochemical, fluorescence (AID 504792). In kind it is functional.
Assay [8] has as its target Protein Rev (Human immunodeficiency virus type 1 group M subtype B (isolate HXB2)(HIV-1), UniProt P04618). Nature of the assay: inhibitors of Rev binding to RRE RNA, dose response, biochemical, fluorescence polarization, HIV-1 (AID 434976). More on the design: species or system Human immunodeficiency virus 1.
In assay [9] the target is Female germline-specific tumor suppressor gld-1 (Caenorhabditis elegans, UniProt Q17339). Kind of assay: inhibitors of GLD-1 binding to TGE RNA, dose response, biochemical, fluorescence polarization, C. elegans (AID 2802).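 Note: fluorescence polarization of labeled TGE RNA bound by purified gld-1 protein.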
In assay [10] the target is DNA dC->dU-editing enzyme APOBEC-3A (Homo sapiens, UniProt P31941). Kind of assay: APOBEC3A DNA deaminase inhibitors, dose response, biochemical (AID 504722). In kind it is functional.
Assay [11] concerns the target DNA dC->dU-editing enzyme APOBEC-3G (Homo sapiens, UniProt Q9HC16). Nature of the assay: Dose Response confirmation of small molecule APOBEC3G DNA Deaminase Inhibitors via a fluorescence-based single-stranded DNA deaminase assay. [Related pubchem assays (depositor defined):AID493012, AID493028]. In kind it is functional.
A short description of assay [12]: THP-1 cell cytotoxicity, dose response, cytotoxicity control for non-replicating M. tuberculosis project (AID 489025). In kind it is functional.
Assay [13] can be described thus: Vero E6 cell cytotoxicity, dose response, cytotoxicity control for non-replicating M. tuberculosis project, secondary assay (AID 492998). In kind it is functional, VeroE6. The following applies: Vero C1008.
Assay [14] is described as follows: HepG2 cell cytotoxicity, dose response, cytotoxicity control for non-replicating M. tuberculosis project (AID 489018). In kind it is functional. The following applies: Mycobacterium tuberculosis.
A short description of assay [15]: microbe, parasite or virus in culture. In kind it is functional. The following applies: Mycobacterium tuberculosis.
Assay [16] concerns the target Nonstructural protein 1 (Influenza A virus, UniProt Q194T2). In kind it is functional, Influenza A virus (A/California/07/2009(H1N1)).
A short description of assay [17]: cells. In kind it is functional.
A short description of assay [18]: AlphaScreen signal interference compounds, dose response, artefact control for ARNT-TACC3 interaction inhibitor project, biochemical, luminescence, cherry-pick (AID 651705).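 Note: AlphaScreen bead proximity signal that flags compounds interfering with the detection technology; potency reflects signal decrease which marks the compound as an assay artifact.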 In kind it is functional. On the technique in general: Bead proximity is the source of the signal in Alpha formats.
The subject of assay [19] is HeLa. Kind of assay: HeLa cell cytotoxicity, dose response, cytotoxicity control, 24 h, cherry-picked samples (AID 504726).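 Note: potency for cytotoxicity as loss of luminescence signal.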 In kind it is functional, cell-based. The conditions noted are these: Homo sapiens.
Assay [20] has as its system Salmon testes DNA. Kind of assay: DNA intercalators displacing acridine orange, dose response, artefact control for KSHV LANA DNA-binding inhibitor project, biochemical, fluorescence polarization, cherry-picked samples, set 2 (AID 504727). Set-up: species or system Salmonidae. A general note: Polarisation of emitted light reports the rotation of a fluorescent probe.

Assay [21] concerns the target T4, Bcl-2-like protein 10 (Homo sapiens, UniProt Q9HD36).
T4 sequence (Q9HD36 whole entry): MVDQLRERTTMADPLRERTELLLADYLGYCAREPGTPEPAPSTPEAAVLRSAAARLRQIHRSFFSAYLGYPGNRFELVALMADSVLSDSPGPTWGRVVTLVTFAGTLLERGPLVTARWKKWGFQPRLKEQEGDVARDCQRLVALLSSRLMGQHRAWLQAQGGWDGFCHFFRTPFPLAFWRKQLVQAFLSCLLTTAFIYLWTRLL
Nature of the assay: displacers of TR3 peptide from Bcl-B, primary screen, selectivity assay for Bfl-1 inhibitor project, biochemical, fluorescence polarization, FITC-TR3 peptide (AID 748).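 Note: fluorescence polarization from a fluorescein-labelled TR3 peptide binding purified Bcl-B.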

Assay [22] addresses T5, RNA-binding protein pos-1 (Caenorhabditis elegans, UniProt G5EF15).
T5 sequence (G5EF15 whole entry): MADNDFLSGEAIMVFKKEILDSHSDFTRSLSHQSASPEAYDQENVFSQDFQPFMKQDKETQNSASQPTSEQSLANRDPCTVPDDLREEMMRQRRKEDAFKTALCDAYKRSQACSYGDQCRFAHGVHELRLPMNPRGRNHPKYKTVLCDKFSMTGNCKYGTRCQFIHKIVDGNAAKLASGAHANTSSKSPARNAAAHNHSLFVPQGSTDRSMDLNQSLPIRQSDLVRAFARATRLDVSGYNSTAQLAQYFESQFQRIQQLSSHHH
Nature of the assay: inhibitors of POS-1/mex-3 RNA binding, dose response, biochemical, fluorescence polarization (AID 1964).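 Note: purified POS-1 fused to maltose binding protein made in E. coli; potency of compounds blocking POS-1 binding to fluorescent RNA.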

The target in assay [23] is T6, Polyadenylate-binding protein 1 (Homo sapiens, UniProt P11940). Nature of the assay: PABP1 MLLE–PAM2 interaction inhibitors, dose response, miRNA deadenylation inhibitor project, biochemical, fluorescence polarization, Cy5-PAM2 peptide, secondary (AID 602260). In kind it is functional. The conditions noted are these: read-out: IC50_Mean.
Assay [24] has as its target T7, Zinc finger protein mex-5 (Caenorhabditis elegans, UniProt Q9XUB2).
T7 sequence (Q9XUB2 whole entry): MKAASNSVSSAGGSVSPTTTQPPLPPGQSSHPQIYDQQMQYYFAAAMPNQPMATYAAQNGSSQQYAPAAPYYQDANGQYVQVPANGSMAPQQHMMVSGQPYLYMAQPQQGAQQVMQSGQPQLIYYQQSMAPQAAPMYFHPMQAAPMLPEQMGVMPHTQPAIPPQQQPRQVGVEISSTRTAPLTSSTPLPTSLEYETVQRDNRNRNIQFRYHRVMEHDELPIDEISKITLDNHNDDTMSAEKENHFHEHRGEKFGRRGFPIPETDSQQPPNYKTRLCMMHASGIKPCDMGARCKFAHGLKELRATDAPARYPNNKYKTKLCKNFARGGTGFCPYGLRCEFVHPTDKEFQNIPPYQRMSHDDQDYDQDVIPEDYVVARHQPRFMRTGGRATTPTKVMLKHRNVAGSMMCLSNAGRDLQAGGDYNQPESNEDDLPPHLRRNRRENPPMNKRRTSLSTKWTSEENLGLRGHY
Kind of assay: MEX-5/TCR-2 RNA interaction inhibitors, dose response, biochemical, C. elegans, fluorescence polarization (AID 1960).

The target of assay [25] is T6, Polyadenylate-binding protein 1. Kind of assay: PABP1 MLLE–PAM2 binding inhibitor potency, dose response, biochemical, fluorescence polarization, FITC-PAM2 peptide (AID 602259). The following applies: read-out: IC50_Mean. In kind it is functional.
The subject of assay [26] is Vero. Kind of assay: Vero E6 cell cytotoxicity, SAR follow-up, cytotoxicity control for West Nile virus antiviral project, synthesized analogs (AID 2244). In kind it is functional. The conditions noted are these: Chlorocebus sabaeus.
For assay [27], the system named is Vero. Kind of assay: cytotoxicity of synthesized analogs in Vero 76, SAR follow-up, cytotoxicity control for West Nile virus antiviral project, Vero 76 cells (AID 2414). In kind it is functional. The following applies: Chlorocebus sabaeus.
For assay [28], the system named is Vero. Kind of assay: cytotoxicity of synthesized analogs in Vero cells, SAR follow-up, cytotoxicity control for West Nile virus antiviral project, cell-based, set II (AID 2402). In kind it is functional. The following applies: Chlorocebus sabaeus.

Activity calls are given as the source filed them.

T6 sequence (P11940 whole entry): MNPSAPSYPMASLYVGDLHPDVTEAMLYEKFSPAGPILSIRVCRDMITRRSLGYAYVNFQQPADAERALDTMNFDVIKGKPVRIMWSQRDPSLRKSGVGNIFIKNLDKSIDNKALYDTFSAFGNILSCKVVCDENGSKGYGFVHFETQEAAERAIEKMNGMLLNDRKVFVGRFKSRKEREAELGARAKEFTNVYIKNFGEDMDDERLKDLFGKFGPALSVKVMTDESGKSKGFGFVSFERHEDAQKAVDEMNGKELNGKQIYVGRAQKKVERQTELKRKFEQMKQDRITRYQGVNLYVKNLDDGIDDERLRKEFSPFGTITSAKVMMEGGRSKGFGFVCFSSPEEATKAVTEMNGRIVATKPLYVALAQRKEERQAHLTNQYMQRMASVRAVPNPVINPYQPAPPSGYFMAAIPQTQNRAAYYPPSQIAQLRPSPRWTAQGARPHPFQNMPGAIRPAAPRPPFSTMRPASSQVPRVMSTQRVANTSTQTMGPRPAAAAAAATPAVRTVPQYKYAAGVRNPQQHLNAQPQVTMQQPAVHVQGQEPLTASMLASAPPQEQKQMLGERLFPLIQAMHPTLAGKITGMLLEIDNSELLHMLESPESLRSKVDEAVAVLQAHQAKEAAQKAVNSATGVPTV
Chain of DNA dC->dU-editing enzyme APOBEC-3A (P31941 whole entry): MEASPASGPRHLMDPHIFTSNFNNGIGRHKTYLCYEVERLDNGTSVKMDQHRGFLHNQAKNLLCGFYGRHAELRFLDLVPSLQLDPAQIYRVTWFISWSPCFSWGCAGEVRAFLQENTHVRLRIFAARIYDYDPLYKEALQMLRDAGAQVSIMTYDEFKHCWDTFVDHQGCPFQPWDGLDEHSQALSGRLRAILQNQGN
Chain of DNA dC->dU-editing enzyme APOBEC-3G (Q9HC16 whole entry): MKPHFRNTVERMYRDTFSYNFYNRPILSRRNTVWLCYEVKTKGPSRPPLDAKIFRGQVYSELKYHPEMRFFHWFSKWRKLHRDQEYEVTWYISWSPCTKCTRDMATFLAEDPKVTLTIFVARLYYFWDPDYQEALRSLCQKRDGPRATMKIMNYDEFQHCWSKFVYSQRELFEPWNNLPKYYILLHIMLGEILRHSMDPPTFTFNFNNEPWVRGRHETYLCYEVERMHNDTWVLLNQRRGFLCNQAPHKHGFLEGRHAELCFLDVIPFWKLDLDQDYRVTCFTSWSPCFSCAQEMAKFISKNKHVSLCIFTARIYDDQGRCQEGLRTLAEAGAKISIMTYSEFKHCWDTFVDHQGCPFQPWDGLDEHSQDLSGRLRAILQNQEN
Chain of Protein Rev (P04618 whole entry): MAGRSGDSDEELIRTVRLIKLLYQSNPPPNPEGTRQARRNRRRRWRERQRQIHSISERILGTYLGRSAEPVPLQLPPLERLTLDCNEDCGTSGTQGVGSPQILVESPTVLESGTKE
Chain of Female germline-specific tumor suppressor gld-1 (Q17339 whole entry): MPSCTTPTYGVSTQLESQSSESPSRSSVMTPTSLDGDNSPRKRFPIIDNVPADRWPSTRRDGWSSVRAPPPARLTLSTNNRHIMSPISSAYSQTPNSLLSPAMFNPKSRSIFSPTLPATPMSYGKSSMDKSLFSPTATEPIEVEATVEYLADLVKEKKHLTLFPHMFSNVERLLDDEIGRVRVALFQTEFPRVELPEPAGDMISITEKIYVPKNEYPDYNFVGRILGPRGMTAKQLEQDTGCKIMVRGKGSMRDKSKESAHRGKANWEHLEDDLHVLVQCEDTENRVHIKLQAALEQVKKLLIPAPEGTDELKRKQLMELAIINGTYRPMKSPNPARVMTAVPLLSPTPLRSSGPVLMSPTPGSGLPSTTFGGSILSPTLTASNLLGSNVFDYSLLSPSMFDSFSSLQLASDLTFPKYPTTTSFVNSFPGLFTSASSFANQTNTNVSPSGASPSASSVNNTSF
Chain of Phosphoethanolamine/phosphocholine phosphatase (Q8TCT1 whole entry): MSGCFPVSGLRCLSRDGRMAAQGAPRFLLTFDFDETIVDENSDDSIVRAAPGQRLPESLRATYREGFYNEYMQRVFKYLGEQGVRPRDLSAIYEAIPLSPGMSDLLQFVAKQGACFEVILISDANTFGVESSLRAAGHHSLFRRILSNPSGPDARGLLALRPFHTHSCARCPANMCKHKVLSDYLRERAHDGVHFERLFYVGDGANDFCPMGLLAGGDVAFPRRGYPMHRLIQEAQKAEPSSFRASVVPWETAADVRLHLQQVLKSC
Chain of Glucose-6-phosphate 1-dehydrogenase (P11413 whole entry): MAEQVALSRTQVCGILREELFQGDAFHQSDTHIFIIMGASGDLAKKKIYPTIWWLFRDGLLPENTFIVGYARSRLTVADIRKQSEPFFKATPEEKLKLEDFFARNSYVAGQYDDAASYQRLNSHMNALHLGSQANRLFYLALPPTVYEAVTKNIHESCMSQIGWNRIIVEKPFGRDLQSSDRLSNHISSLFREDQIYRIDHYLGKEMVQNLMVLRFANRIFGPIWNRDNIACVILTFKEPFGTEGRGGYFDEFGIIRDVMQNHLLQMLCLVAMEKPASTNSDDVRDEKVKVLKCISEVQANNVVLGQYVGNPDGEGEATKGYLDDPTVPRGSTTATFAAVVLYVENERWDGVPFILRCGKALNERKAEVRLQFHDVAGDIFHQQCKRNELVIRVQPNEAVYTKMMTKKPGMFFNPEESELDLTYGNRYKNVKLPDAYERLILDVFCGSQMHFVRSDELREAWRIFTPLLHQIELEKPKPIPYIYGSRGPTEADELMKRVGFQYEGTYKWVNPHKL
Chain of Eukaryotic translation initiation factor 4E (P63073 whole entry): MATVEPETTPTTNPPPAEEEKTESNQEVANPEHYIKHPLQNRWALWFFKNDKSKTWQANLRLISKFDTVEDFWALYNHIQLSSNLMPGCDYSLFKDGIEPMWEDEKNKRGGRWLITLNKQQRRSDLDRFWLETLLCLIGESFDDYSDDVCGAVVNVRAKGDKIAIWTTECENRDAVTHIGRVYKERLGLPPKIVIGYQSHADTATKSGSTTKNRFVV
Chain of Nonstructural protein 1 (Q194T2 whole entry): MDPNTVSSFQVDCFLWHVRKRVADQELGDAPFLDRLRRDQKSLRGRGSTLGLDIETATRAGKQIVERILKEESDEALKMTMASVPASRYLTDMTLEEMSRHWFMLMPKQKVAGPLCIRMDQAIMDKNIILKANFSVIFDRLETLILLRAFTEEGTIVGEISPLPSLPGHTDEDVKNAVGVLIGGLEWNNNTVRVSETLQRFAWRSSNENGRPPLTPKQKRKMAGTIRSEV
Chain of Large T antigen (P03070 whole entry): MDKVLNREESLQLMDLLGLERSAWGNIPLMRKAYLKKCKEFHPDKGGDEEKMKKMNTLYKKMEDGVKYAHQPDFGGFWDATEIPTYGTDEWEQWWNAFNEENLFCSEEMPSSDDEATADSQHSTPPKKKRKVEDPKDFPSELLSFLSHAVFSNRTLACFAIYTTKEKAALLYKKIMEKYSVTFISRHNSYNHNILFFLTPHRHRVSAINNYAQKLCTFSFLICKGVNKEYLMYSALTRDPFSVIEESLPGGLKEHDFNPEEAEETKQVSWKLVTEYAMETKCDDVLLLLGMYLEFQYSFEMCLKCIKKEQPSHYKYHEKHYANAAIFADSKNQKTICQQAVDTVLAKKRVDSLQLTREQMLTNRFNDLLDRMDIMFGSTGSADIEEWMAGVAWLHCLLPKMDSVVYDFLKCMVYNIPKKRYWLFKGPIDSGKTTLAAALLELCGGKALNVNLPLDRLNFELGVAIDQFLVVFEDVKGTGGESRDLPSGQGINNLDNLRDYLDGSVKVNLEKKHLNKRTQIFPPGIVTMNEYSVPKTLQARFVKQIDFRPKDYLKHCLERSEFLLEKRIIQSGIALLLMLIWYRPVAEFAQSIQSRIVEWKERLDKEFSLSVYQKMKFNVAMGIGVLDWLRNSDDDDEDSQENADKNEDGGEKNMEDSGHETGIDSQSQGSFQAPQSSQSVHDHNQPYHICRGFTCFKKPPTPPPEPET

As for `O=c1c2ccccc2sn1-c1cc(S(=O)(=O)N2CCOCC2)ccc1N1CCCC1`, the IC50 in assay [1] is 7.51 µM (active); in [2] it was 29.8 µM (active); in assay [3], 11 µM (active); in assay [4], 34.5 µM (inactive); in assay [5], 10.7 µM (inactive); in assay [6], 11.7 µM (active). In assay [7], the IC50 was 14.3 µM (active).
As to `CC(C)CCN(C(=O)CCCSc1nc2ccccc2[nH]1)c1c(N)n(Cc2ccccc2)c(=O)[nH]c1=O`, the IC50 in assay [8] is > 8.38 µM (active); in assay [9] it was 3.12 µM (active).
As to `COc1ccc(OCc2nnc(S)n2Cc2ccco2)cc1`, the IC50 in assay [10] is > 100 µM (inactive); in assay [11] it was 3.88 µM (active).
As to `O=C(CCS(=O)(=O)c1ccc(F)cc1)Nc1nc(-c2ccccn2)cs1`, the CC50 in assay [12] is 23.6 µM (active); in assay [13], 12 µM (active); in assay [14], > 20 µM (active); in [15], 21.1 µM (active). The IC50 in [16] was 21.5 µM (active); in assay [17], 6.21 µM (active). Further, the AC50 in [18] is 99.2 µM (active).
Turning to `Cc1nnc2sc(-c3csc4c3CCCC4)nn12`, the half-maximal activity concentration (AC50) in [19] is 26.3 µM (active); in assay [20], 73.6 µM (active).
On to `O=C1NC(=O)[C@]2(Cc3ccccc3N3CCN(c4ccccc4)CC32)C(=O)N1c1ccccc1` (stereo partly specified), for which the IC50 in assay [21] was 54 µM (inactive).
`COc1ccc(NC(=O)Nc2cc(C)cc(C)c2)cn1`: the half-maximal effective concentration (EC50) in [22] was 186 µM (active); in [24], 27.4 µM (active). The IC50 in assay [8] was 11.4 µM (not active); in assay [23], > 66 µM (inactive); in assay [9], 7.15 µM (active); in [25], 21.8 µM (inactive).
In the case of `O=C(CSc1nc2ccccc2c(=O)n1-c1ccc(F)cc1)Nc1cccc2ccccc12`, the CC50 is > 40 µM (active) in [26], > 66.6 µM (active) in assay [27] and > 100 µM (active) in assay [28].
On to `O=c1c2ccccc2sn1-c1cccc(C(F)(F)F)c1`, for which the IC50 in [1] is 23.7 µM (active); in [2], > 100 µM (inactive); in assay [5], 11.6 µM (inactive).
In the case of `CC(=O)c1c(CC(=O)O)[nH]n(-c2nc3ccccc3s2)c1=O`, in assay [21], the IC50 was 71.2 µM (inactive).
With `Fc1cccc(Cl)c1/C=N/n1c(S)nnc1-c1cccnc1`, the IC50 in assay [10] is > 100 µM (inactive); in assay [11], 2.73 µM (active).

What is called AC50 is the concentration giving half of the maximal activity seen. One may read the EC50 as the concentration needed to bring the measured effect to its halfway point.
